Laboratory results reported in patent US20220392580A1, “COMPUTATIONAL MODEL TRAINED TO PREDICT INTERACTING PAIRS BASED ON WEAKLY-CORRELATED FEATURES” (Cornell University, priority 2016, published 2022).
Where a name gives a salt, the structure may show the parent alone.

Experiments:
[1] = system: D1-like (DRD1/5) subfamily of dopamine receptors; conditions: arrestin recruitment GPCR profiling
Description: (§1) To test the target prediction, in vitro profiling of GPCR activity using a hetereologous reporter assay for arrestin recruitment, a hallmark of GPCR activation was performed.

[2] = system: D2-like (DRD2/3/4) subfamily of dopamine receptors; conditions: arrestin recruitment GPCR profiling
Description: as §1

DRD4 = DRD4 (Homo sapiens, UniProt P21917); conditions: arrestin recruitment GPCR profiling; potency relative to DRD2 and DRD3
Sequence of DRD4 (P21917 whole entry): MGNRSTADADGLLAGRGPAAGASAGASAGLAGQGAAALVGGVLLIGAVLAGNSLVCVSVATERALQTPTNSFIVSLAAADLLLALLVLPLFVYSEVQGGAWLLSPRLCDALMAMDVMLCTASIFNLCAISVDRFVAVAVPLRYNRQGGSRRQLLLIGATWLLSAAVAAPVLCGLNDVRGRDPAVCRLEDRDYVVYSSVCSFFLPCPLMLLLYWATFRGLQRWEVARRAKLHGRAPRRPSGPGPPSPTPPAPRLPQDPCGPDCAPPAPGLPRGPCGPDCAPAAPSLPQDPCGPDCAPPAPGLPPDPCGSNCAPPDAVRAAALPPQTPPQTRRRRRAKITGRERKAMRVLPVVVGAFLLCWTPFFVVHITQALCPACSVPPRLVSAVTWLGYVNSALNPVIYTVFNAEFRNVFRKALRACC
Description: as §1

[3] = system: short and long isoforms of DRD2; conditions: arrestin recruitment GPCR profiling
Description: as §1

other GPCRs = test: in vitro profiling of GPCR activity, heterologous reporter assay for arrestin recruitment; type: cell-based; conditions: under the evaluated conditions
Description: as §1

[4] = system: nuclear hormone receptors; test: interaction profiling
[5] = system: other drug targets of FDA-approved cancer therapies; test: interaction profiling
DRD2L [6] = biological target: T1, DRD2L (Homo sapiens, UniProt P14416); conditions: another measure of DRD2L activation
T1 sequence (P14416 whole entry): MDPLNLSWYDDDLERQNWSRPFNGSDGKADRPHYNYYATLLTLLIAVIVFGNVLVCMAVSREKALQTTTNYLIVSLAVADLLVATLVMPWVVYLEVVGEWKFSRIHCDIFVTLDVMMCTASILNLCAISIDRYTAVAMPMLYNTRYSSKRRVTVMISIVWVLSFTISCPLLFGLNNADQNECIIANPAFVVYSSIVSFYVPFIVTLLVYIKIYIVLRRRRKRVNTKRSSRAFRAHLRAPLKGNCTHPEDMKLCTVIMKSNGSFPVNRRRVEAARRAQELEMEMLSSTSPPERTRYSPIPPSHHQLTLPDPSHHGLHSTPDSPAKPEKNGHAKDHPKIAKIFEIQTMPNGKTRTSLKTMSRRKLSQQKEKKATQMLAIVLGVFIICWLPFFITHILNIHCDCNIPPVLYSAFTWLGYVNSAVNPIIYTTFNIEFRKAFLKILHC

DRD2L [7] = biological target: T1, DRD2L; test: antagonism of arrestin recruitment to DRD2L, Gaddam/Schild EC50 shift analysis; type: cell-based; design: expressed in transfected cells; conditions: dopamine completely reverses dose-dependent antagonism of up to 100 uM ONC201
Description: as §1

breast cancer patients = conditions: recent clinical trials; cited from earlier work

Cc1ccccc1CN1C(=O)C2=C(CCN(Cc3ccccc3)C2)N2CCN=C12 [ONC201]
antagonism of D1-like dopamine receptors [1]: but not D1-like (DRD1/5)
antagonism of D2-like dopamine receptors [2]: selectively antagonizes
antagonism of DRD4 (DRD4): weaker potency
antagonism of DRD2 short and long isoforms [3]: antagonized
antagonism of other GPCRs (other GPCRs): no observed antagonism
interactions with nuclear hormone receptors [4]: no significant interactions
interactions with other drug targets of FDA-approved cancer therapies [5]: no significant interactions
cAMP modulation in response to compound (DRD2L [6]): Confirmatory results
interactions with the kinome (the kinome): no significant interactions
mode of antagonism of DRD2L (reversal by dopamine) (DRD2L [7]): direct, competitive antagonism

C=C1C[C@@H]2CC[C@@]34C[C@H]5O[C@H]6[C@@H](O3)[C@H]3O[C@H](CC[C@@H]3O[C@H]6[C@H]5O4)CC(=O)C[C@@H]3[C@@H](OC)[C@@H](C[C@H](O)CN)O[C@H]3C[C@H]3O[C@@H](CC[C@@H]1O2)C[C@@H](C)C3=C [Eribulin, Eribulin mesylate]
patients showing any detectable response after treatment (breast cancer patients): < 50%
